The results in this text go back to patent US10179771B2 (GALAPAGOS NV, priority 2014, dated 2019).

SMILES strings stand for the structures. pIC50: −log10 of the molar value.

Experiment [1] deals with T1, Recombinant human JAK3 catalytic domain (Homo sapiens, UniProt P52333).
T1 construct: Recombinant human JAK3 catalytic domain (amino acids 781-1124; catalog number PV3855); purchased Invitrogen PV3855
Nature of the experiment: JAK3 inhibition assay. The class given is biochemical. On the procedure: Recombinant human JAK3 catalytic domain (amino acids 781-1124; catalog number PV3855) was purchased from Invitrogen. 0.5 ng JAK3 protein was incubated with 2.5 μg polyGT substrate (Sigma catalog number P0275) in kinase reaction buffer (25 mM Tris pH 7.5, 0.5 mM EGTA, 10 mM MgCl2, 2.5 mM DTT, 0.5 mM Na3VO4, 5 mM b-glycerolphosphate, 0.01% Triton X-100, 1 μM non-radioactive ATP, […] ^33P-gamma-ATP (GE Healthcare, catalog number AH9968) final concentrations) with or without 5 μL containing test compound or vehicle (DMSO, 1% final concentration), in a total volume of 25 μL, in a polypropylene 96-well plate (Greiner, V-bottom). After 45 min at 30° C., reactions were stopped by adding 25 μL/well of 150 mM phosphoric acid. All of the terminated kinase reaction was transferred to prewashed (75 mM phosphoric acid) 96 well filter plates (Perkin Elmer catalog number 6005177) using a cell harvester (Perkin Elmer). Plates were washed 6 times with 300 μL per well of a 75 mM phosphoric acid solution and the bottom of the plates was sealed. 40 μL/well of Microscint-20 was added, the top of the plates was sealed and readout was performed using the Topcount (Perkin Elmer). Kinase activity was calculated by subtracting counts per min (cpm) obtained in the presence of a positive control inhibitor (10 μM staurosporine) from cpm obtained in the presence of vehicle. The ability of a test compound to inhibit this activity was determined as:
[formula] • RFU test compound=RFU determined for sample with test compound present • RFU control=RFU determined for sample with positive control inhibitor • RFU vehicle=RFU determined in the presence of vehicle
Dose dilution series were prepared for the compounds enabling the testing of dose-response effects in the JAK3 assay and the calculation of the IC50 for each compound. Each compound was routinely tested at concentration of 20 μM followed by a 1/5 serial dilution, 10 points in a final concentration of 1% DMSO. When potency of compound series increased, more dilutions were prepared and/or the top concentration was lowered (e.g. 5 μM, 1 μM).

In experiment [2] the target is T2, Recombinant human TYK2 catalytic domain (Homo sapiens, UniProt P29597).
T2 construct: Recombinant human TYK2 catalytic domain (amino acids 871-1187; catalog number 08-147); purchased Carna biosciences 08-147
T2 sequence (P29597 871-1187): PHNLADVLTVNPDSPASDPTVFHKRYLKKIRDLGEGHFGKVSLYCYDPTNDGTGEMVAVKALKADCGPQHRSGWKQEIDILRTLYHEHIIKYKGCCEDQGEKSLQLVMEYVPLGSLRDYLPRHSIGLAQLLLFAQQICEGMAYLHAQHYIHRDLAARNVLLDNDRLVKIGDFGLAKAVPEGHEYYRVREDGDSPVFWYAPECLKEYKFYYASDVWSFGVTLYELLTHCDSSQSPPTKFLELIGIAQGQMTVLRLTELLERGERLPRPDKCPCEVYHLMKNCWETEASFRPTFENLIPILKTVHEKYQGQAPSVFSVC
Nature of the experiment: TYK2 inhibition assay. The class given is biochemical. On the procedure: Recombinant human TYK2 catalytic domain (amino acids 871-1187; catalog number 08-147) was purchased from Carna biosciences. 5 ng of TYK2 was incubated with 12.5 μg polyGT substrate (Sigma catalog number P0275) in kinase reaction buffer (25 mM Hepes pH 7.2, 50 mM NaCl, 0.5 mM EDTA, 1 mM DTT, 5 mM MnCl2, 10 mM MgCl2, 0.1% Brij-35, 0.1 μM non-radioactive ATP, 0.125 μCi ^33P-gamma-ATP (GE Healthcare, catalog number AH9968) final concentrations) with or without 5 μL containing test compound or vehicle (DMSO, 1% final concentration), in a total volume of 25 μL, in a polypropylene 96-well plate (Greiner, V-bottom). After 90 min at 30° C., reactions were stopped by adding 25 μL/well of 150 mM phosphoric acid. All of the terminated kinase reaction was transferred to prewashed (75 mM phosphoric acid) 96 well filter plates (Perkin Elmer catalog number 6005177) using a cell harvester (Perkin Elmer). Plates were washed 6 times with 300 μL per well of a 75 mM phosphoric acid solution and the bottom of the plates was sealed. 40 μL/well of Microscint-20 was added, the top of the plates was sealed and readout was performed using the Topcount (Perkin Elmer). Kinase activity was calculated by subtracting counts per min (cpm) obtained in the presence of a positive control inhibitor (10 μM staurosporine) from cpm obtained in the presence of vehicle. The ability of a test compound to inhibit this activity was determined as: Percentage inhibition=((cpm determined for sample with test compound present−cpm determined for sample with positive control inhibitor) divided by (cpm determined in the presence of vehicle−cpm determined for sample with positive control inhibitor))*100.
Dose dilution series were prepared for the compounds enabling the testing of dose-response effects in the TYK2 assay and the calculation of the IC50 for each compound. Each compound was routinely tested at concentration of 20 μM followed by a 1/3 serial dilution, 8 points (20 μM-6.67 μM-2.22 μM-740 nM-247 nM-82 nM-27 nM-9 nM) in a final concentration of 1% DMSO. When potency of compound series increased, more dilutions were prepared and/or the top concentration was lowered (e.g. 5 μM, 1 μM).

The mark [3] stands for this setting: Illustrative Compounds of the invention (Table IX).
Where [4] appears, read: Illustrative Compounds of the invention (Table XI).

By pIC50 is commonly meant −log10 of the IC50, conventionally taken in molar units.

T1 sequence (P52333 781-1124): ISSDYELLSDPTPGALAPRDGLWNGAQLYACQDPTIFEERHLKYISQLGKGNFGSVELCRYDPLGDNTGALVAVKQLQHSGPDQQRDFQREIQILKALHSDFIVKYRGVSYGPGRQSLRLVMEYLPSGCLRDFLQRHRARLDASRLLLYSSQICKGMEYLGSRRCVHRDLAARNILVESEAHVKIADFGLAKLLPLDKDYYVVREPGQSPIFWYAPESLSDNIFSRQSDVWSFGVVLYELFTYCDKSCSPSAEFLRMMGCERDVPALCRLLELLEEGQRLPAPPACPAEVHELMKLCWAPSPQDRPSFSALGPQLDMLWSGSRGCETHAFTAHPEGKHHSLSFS

For the compound `CNC(=O)Nc1cc(Oc2cnc(C#N)cc2C)cc2c1ncn2C`, the figures for the pIC50 in experiment [1] (setting [3]) and in experiment [2] (setting [4]) were 6.30 to 7.00 and 7.30 to 10.00, respectively.

With `CCc1cc(C#N)cc(F)c1N(C)c1cc(NC(=O)[C@@H]2C[C@@H]2F)c2ncn(C)c2c1` (racemic) [Cpd 7, N-(6-((4-cyano-2-ethyl-6-fluorophenyl)(methyl)amino)-1-methyl-1H-benzo[d]imidazol-4-yl)-2-fluorocyclopropanecarboxamide (1S,2S)/(1R,2R) racemic mixture], the negative-log IC50 (pIC50) in experiment [1] (setting [3]) and in experiment [2] (setting [4]) was 7.30 to 10.00 throughout.

Turning to `CN(c1ccc2ncn(C)c2c1)c1ccc(C#N)cc1F` [C, 3-fluoro-4-[methyl-(3-methylbenzimidazol-5-yl)amino]benzonitrile, reference compound], the pIC50 in experiment [1] (Comparative Compounds (Table X)) and in experiment [2] (Comparative Compounds (Table XII)) was less than 6.30 throughout.

With `CCc1cc(C#N)ncc1N(C)c1cc(NC(=O)C2CC2)c2ncn(C)c2c1` [Cpd 1, N-(6-((6-cyano-4-ethylpyridin-3-yl)(methyl)amino)-1-methyl-1H-benzo[d]imidazol-4-yl)cyclopropanecarboxamide], the results for the pIC50 in experiment [1] (setting [3]) and in experiment [2] (setting [4]) were 7.00 to 7.30 and 7.30 to 10.00, respectively.

As to `CCc1cc(C#N)cc(F)c1Nc1cc(NC(=O)C2CC2)c2ncn(C)c2c1` [Cpd 2, N-(6-(4-cyano-2-ethyl-6-fluorophenylamino)-1-methyl-1H-benzo[d]imidazol-4-yl)cyclopropanecarboxamide], the pIC50 in experiment [1] (setting [3]) and in experiment [2] (setting [4]) was 7.30 to 10.00 in each case.

With `CCc1cc(C#N)cc(F)c1N(C)c1cc(NC(=O)C2CC2)c2ncn(C)c2c1` [Cpd 3, N-(6-((4-cyano-2-ethyl-6-fluorophenyl)(methyl)amino)-1-methyl-1H-benzo[d]imidazol-4-yl)cyclopropanecarboxamide], the negative logarithm of the IC50 (pIC50) in experiment [1] (setting [3]) and in experiment [2] (setting [4]) was 7.30 to 10.00 in each case.

Turning to `CCc1cc(C#N)ncc1N(C)c1cc(NC(=O)OC)c2ncn(C)c2c1` [Cpd 4, methyl 6-((6-cyano-4-ethylpyridin-3-yl)(methyl)amino)-1-methyl-1H-benzo[d]imidazol-4-ylcarbamate], the pIC50 in experiment [1] (setting [3]) was 6.30 to 7.00; in experiment [2] (setting [4]) it was 7.30 to 10.00.

As for `CCc1cc(C#N)cc(F)c1N(C)c1cc(NC(=O)OC)c2ncn(C)c2c1` [Cpd 5, methyl 6-((4-cyano-2-ethyl-6-fluorophenyl)(methyl)amino)-1-methyl-1H-benzo[d]imidazol-4-ylcarbamate], the pIC50 was 7.00 to 7.30 in experiment [1] (setting [3]) and 7.30 to 10.00 in experiment [2] (setting [4]).

As to `CCc1cc(C#N)ncc1Oc1cc(NC(=O)[C@H]2C[C@H]2F)c2ncn(C)c2c1` [Cpd 6, (1R,2R)-N-[6-[(6-cyano-4-ethyl-3-pyridyl)oxy]-1-methyl-benzimidazol-4-yl]-2-fluoro-cyclopropanecarboxamide], the pIC50 in experiment [1] (setting [3]) was less than 6.30; in experiment [2] (setting [4]) it was 7.30 to 10.00.

Consider `CCc1cc(C#N)ncc1N(C)c1cc(NC(=O)[C@H]2C[C@H]2F)c2ncn(C)c2c1` [Cpd 8, (1R,2R)-N-(6-((6-cyano-4-ethylpyridin-3-yl)(methyl)amino)-1-methyl-1H-benzo[d]imidazol-4-yl)-2-fluorocyclopropanecarboxamide], for which the results for the pIC50 in experiment [1] (setting [3]) and in experiment [2] (setting [4]) were 6.30 to 7.00 and 7.30 to 10.00, respectively.

Consider `Cc1cc(C#N)ncc1N(C)c1cc(NC(=O)[C@H]2C[C@H]2F)c2ncn(C)c2c1` [Cpd 9, (1R,2R)-N-(6-((6-cyano-4-methylpyridin-3-yl)(methyl)amino)-1-methyl-1H-benzo[d]imidazol-4-yl)-2-fluorocyclopropanecarboxamide], for which the figures for the pIC50 in experiment [1] (setting [3]) and in experiment [2] (setting [4]) were 6.30 to 7.00 and 7.30 to 10.00, respectively.

With `CCc1cc(C#N)ccc1Oc1cc(NC(=O)[C@H]2C[C@H]2F)c2ncn(C)c2c1` [Cpd 10, (1R,2R)-N-[6-(4-cyano-2-ethyl-phenoxy)-1-methyl-benzimidazol-4-yl]-2-fluoro-cyclopropanecarboxamide], the pIC50 in experiment [1] (setting [3]) is 6.30 to 7.00; in experiment [2] (setting [4]) it was 7.30 to 10.00.

Regarding `CN(c1cc(NC(=O)[C@H]2C[C@H]2F)c2ncn(C)c2c1)c1c(F)cc(C#N)cc1Cl` [Cpd 11, (1R,2R)-N-[6-(2-chloro-4-cyano-6-fluoro-N-methyl-anilino)-1-methyl-benzimidazol-4-yl]-2-fluoro-cyclopropanecarboxamide], the pIC50 is 6.30 to 7.00 in experiment [1] (setting [3]) and 7.30 to 10.00 in experiment [2] (setting [4]).

With `Cc1cc(F)ncc1N(C)c1cc(NC(=O)[C@H]2C[C@H]2F)c2ncn(C)c2c1` [Cpd 12, (1R,2R)-2-fluoro-N-[6-[(6-fluoro-4-methyl-3-pyridyl)-methyl-amino]-1-methyl-benzimidazol-4-yl]cyclopropanecarboxamide], the pIC50 in experiment [1] (setting [3]) was 6.30 to 7.00; in experiment [2] (setting [4]), 7.30 to 10.00.

In the case of `CN(c1cc(NC(=O)[C@H]2C[C@H]2F)c2ncn(C)c2c1)c1ccc(F)nc1F` [Cpd 13, (1R,2R)-N-[6-[(2,6-difluoro-3-pyridyl)-methyl-amino]-1-methyl-benzimidazol-4-yl]-2-fluoro-cyclopropanecarboxamide], the pIC50 in experiment [1] (setting [3]) was less than 6.30; in experiment [2] (setting [4]), 7.30 to 10.00.

Regarding `CN(c1cc(NC(=O)[C@H]2C[C@H]2F)c2ncn(C)c2c1)c1ccc(C#N)nc1F` [Cpd 14, (1R,2R)-N-[6-[(6-cyano-2-fluoro-3-pyridyl)-methyl-amino]-1-methyl-benzimidazol-4-yl]-2-fluoro-cyclopropanecarboxamide], the pIC50 is 6.30 to 7.00 in experiment [1] (setting [3]) and 7.30 to 10.00 in experiment [2] (setting [4]).

Regarding `CN(c1cc(NC(=O)[C@H]2C[C@H]2F)c2ncn(C)c2c1)c1ccc(C#N)cc1F` [Cpd 15, (1R,2R)-N-[6-(4-cyano-2-fluoro-N-methyl-anilino)-1-methyl-benzimidazol-4-yl]-2-fluoro-cyclopropanecarboxamide], the pIC50 in experiment [1] (setting [3]) was less than 6.30; in experiment [2] (setting [4]), 7.30 to 10.00.

In the case of `Cc1cc(S(C)(=O)=O)cc(F)c1N(C)c1cc(NC(=O)[C@H]2C[C@H]2F)c2ncn(C)c2c1` [Cpd 16, (1R,2R)-2-fluoro-N-[6-(2-fluoro-N,6-dimethyl-4-methylsulfonyl-anilino)-1-methyl-benzimidazol-4-yl]cyclopropanecarboxamide], the pIC50 in experiment [1] (setting [3]) was 7.00 to 7.30; in experiment [2] (setting [4]), 7.30 to 10.00.

Take `CN(c1cc(NC(=O)[C@H]2C[C@H]2F)c2ncn(C)c2c1)c1ccc(S(C)(=O)=O)cc1F` [Cpd 17, (1R,2R)-2-fluoro-N-[6-(2-fluoro-N-methyl-4-methylsulfonyl-anilino)-1-methyl-benzimidazol-4-yl]cyclopropanecarboxamide]: the pIC50 in experiment [1] (setting [3]) is less than 6.30; in experiment [2] (setting [4]), 6.30 to 7.00.
